In patent US4980377A, “1-(aminophenyl)-2-aminopropanone derivatives” (Laboratoire L. Lafon, priority 1984, dated 1990):
Entries after “also recorded” stand apart in the source; their conditions may differ. Structures can show the parent of a compound that is named as a salt.

What was measured:
[1] = Acute toxicity by intraperitoneal administration; format: in vivo, mouse; conditions: mouse, in vivo, ip; male mice
Method: (§1) In the neuropsychopharmacological study which follows, a solution of CRL 41 153 in distilled water (pH 1.5) was administered intraperitoneally in a volume of 20 ml/kg to male mice and 5 ml/kg to male rats.

[2] = tested on: male mice; test: Acute toxicity by intraperitoneal administration; format: in vivo, mouse; conditions: i.p.
Method: as §1

[3] = Particular toxicity in grouped mice; conditions: mouse, ip
Method: (§2) The number of dead animals is noted after 1 hour, 2 hours, 3 hours, 4 hours and 24 hours.

[4] = tested on: mice; test: Particular toxicity in grouped mice; conditions: mice
Method: as §2

[5] = tested on: dogs; test: Cardiovascular study in anesthetized dogs; format: in vivo, dog
Procedure, shortened: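 Measurements: blood pressure, heart rate, femoral and vertebral arterial flow, rectal temperature, skin colour, and for CRL 41 194 bile colour via bile-duct catheter. Doses rose stepwise 0.1–10 mg/kg intraduodenally in solution under nembutal anaesthesia; two dogs got CRL 41 194, four CRL 41 221.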

[6] = tested on: cellular and humoral immunity; test: Delayed hypersensitivity to the red blood corpuscles of sheep; format: in vivo
[7] = tested on: mice; test: Interaction with barbital; format: in vivo, mouse; conditions: gastric
Method: Half an hour after the administration of CRL 41 153, groups of 10 mice receive an intraperitoneal injection of barbital (220 mg/kg).

[8] = tested on: mice; test: Spontaneous motility; format: in vivo, mouse; conditions: gastric
Method: 0.5 hour after they have received CRL 41 153, the mice (6 per dose, 12 control animals) are placed in an actimeter, where their motility is recorded for 30 minutes.

[9] = tested on: humans; test: Clinical study: vasodilator; format: in vivo, human
Text: In the treatment of diseases associated with the blood circulation through the vessels.

[10] = tested on: gravid White New Zealand female rabbits; test: Teratogenicity in gravid White New Zealand rabbits; format: in vivo, rabbit; conditions: day 5 to day 18 of gestation; for Affected foetuses, %: normal limit 1.5%
Procedure, shortened: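 Fetuses harvested by cesarean on gestation day 29 were scored for number and for any malformation (limb blockade, anury, tail or skull defects, exencephaly).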

[11] = pH of solutions in distilled water; format: physicochemical; conditions: administered solution in distilled water, concentration not given
Method: The neuropsychopharmacological study was undertaken according to the procedures described above for CRL 41 153, CRL 41 213 being adminstered intraperitoneally, in solution in distilled water, in a volume of 20 ml/kg to male mice and a volume of 5 ml/kg to male rats, and the pH of the injected solution varying with the concentration of CRL 41 213 according to the data given in Table II below.

[12] = tested on: cellular and humoral immunity; test: Test for cells forming lysis areas; conditions: in vivo
[13] = tested on: immunity; test: Immunological study (overall); conditions: in vivo; hydrochloride
[14] = tested on: rats; test: Overall behavior and reactivities in rats; format: in vivo, rat; conditions: for Observed symptoms: i.p.
Method: as §1
(§3) Groups of three animals are observed before and then 0.25 hour, 0.50 hour, 1 hour, 2 hours, 3 hours and 24 hours after the administration of CRL 41 153.

[15] = tested on: CNS; test: Neuropsychopharmacological profile as a whole; format: in vivo, mice and rats; conditions: conclusion of the tests
Method: as §1

[16] = tested on: man; test: Clinical study: treatment of depressions; format: in vivo, human
[17] = tested on: mice; test: Interaction with apomorphine in mice; format: in vivo, mouse; conditions: gastric, apomorphine 16 mg/kg s.c.
Method: Groups of 6 mice receive CRL 41 153 0.5 hour before the subcutaneous injection of 1 or 16 mg/kg of apomorphine.

[18] = tested on: rats; test: Investigation of stereotype movements; format: in vivo, rat; conditions: i.p., compared with amphetamine 2 mg/kg, hydrochloride
Method: Immediately after the intraperitoneal administration of CRL 41 194 or amphetamine, groups of 6 rats are placed in Plexiglass boxes (20×10×10 cm). The stereotype movements are graded from 0 to 3 every 10 minutes until they wear off.
Groups of 6 rats receive an intraperitoneal injection of CRL 41 213, distilled water or amphetamine immediately before being placed in small cages, where their stereotype behavior is graded every 10 minutes until the effect wears off.

[19] = tested on: mice; test: Overall behavior and reactivities in mice; format: in vivo, mouse; conditions: i.p.
Method: as §1, §3

[20] = anesthetized dogs, intraduodenal
[21] = dogs, after product, isoprenaline 10 μg/kg
[22] = dogs, after product, norepinephrine 2 μg/kg

CC(C)NC(C)C(=O)c1cc(Cl)c(N)c(Cl)c1 (centres unmarked) [CRL 41 194, 1-(4-amino-3,5-dichlorophenyl)-2-isopropylaminopropanone hydrochloride]
LD50 [1]: 86 mg/kg | LD0 (maximum non-lethal dose) [2]: greater than 32 mg/kg | LD50 ([3]; grouped mice): 27 mg/kg | selectivity ratio ([3]; in vivo): 3.19 | LD50 ([3]; isolated mice): 86 mg/kg | Particular toxicity to grouped mice [4]: more toxic to grouped mice than to isolated mice | Vasodilator (conclusion) [5]: good vasodilator | Effect on hypertension induced by norepinephrine ([5]; anesthetized dogs): slightly reduced | Effects of isoprenaline on the blood pressure ([5]; anesthetized dogs): reduced as regards the blood pressure | Rectal temperature ([5]; anesthetized dogs): the rectal temperature and skin temperature rose | Skin temperature ([5]; anesthetized dogs): the rectal temperature and skin temperature rose | Effects of isoprenaline on the heart rate ([5]; anesthetized dogs, after accumulated dose of 19.1 mg/kg intraduodenal): not modified as regards the heart rate | Blood pressure [5, 20]: A drop in the diastolic blood pressure is observed at 5 mg/kg | Differential blood pressure [5, 20]: an increase in the differential blood pressure as from the smallest doses | Femoral flow [5, 20]: At 0.5 mg/kg, the femoral flow increases | Heart rate [5, 20]: At 0.5 mg/kg, the femoral flow increases at the same time as the heart rate | Respiration [5, 20]: Both dogs received respiratory stimulation | Vertebral flow [5, 20]: increases the vertebral flow as from a dose of 0.1 mg/kg | Diastolic blood pressure after isoprenaline [5, 21]: 64 mm Hg | Diastolic blood pressure before isoprenaline [5, 21]: 126 mm Hg | Heart rate after isoprenaline [5, 21]: 262 beats/minute | Systolic blood pressure after norepinephrine [5, 22]: 266 mm Hg | Systolic blood pressure before norepinephrine [5, 22]: 208 mm Hg | Activity on the delayed hypersensitivity reaction [6]: active on the cellular and humoral immunity | Duration of the sleep induced by barbital [7]: At the strongest dose administered gastrically (32 mg/kg), CRL 41 194 reduces the duration of the sleep induced by barbital in mice | Spontaneous motor activity [8]: At the strongest dose administered gastrically (32 mg/kg), CRL 41 194 slightly reduces the spontaneous motor activity of mice | Vasodilator in human clinical use [9]: very active as a vasodilator | Affected foetuses, number ([10]; 5 mg/kg daily): 1 | Total foetuses (live) ([10]; 5 mg/kg daily): 95 | Affected foetuses, % ([10]; 5 mg/kg daily): 1.10% | Affected foetuses, number ([10]; 10 mg/kg daily): 0 | Total foetuses (live) ([10]; 10 mg/kg daily): 91 | Affected foetuses, % ([10]; 10 mg/kg daily): 0% | pH [11]: 4.5 | Activity in the test for cells forming lysis areas [12]: active on the cellular and humoral immunity | Immunological effect (overall) [13]: immunostimulant or immunomodulating effects; also recorded: beneficial immunological properties; also recorded: behaves as an immunomodulating agent | Stereotype movements (summary) ([14]; dose not stated): stereotype movements (of moderate intensity) | Observed symptoms ([14]; 0.125 mg/kg): mydriasis for 2 hours (at a maximum 0.5 hour after administration) | Observed symptoms ([14]; 0.5 mg/kg): dyspnea for 0.5 hour | Observed symptoms ([14]; 2 mg/kg, hydrochloride): mydriasis at a maximum 0.5 hour after administration; also recorded: dyspnea for 2 hours | Observed symptoms ([14]; 8 mg/kg, hydrochloride): piloerection for 1 hour; also recorded: mydriasis for 2 hours (at a maximum 0.5 hour after administration); also recorded: dyspnea for 2 hours | Antidepressant effects (overall) [15]: is an antidepressant | Result in the treatment of depressions [16]: excellent results on man in the treatment of depressions at a dose of 3×5 mg per day | Effect on hypothermia induced by apomorphine [17]: as from a dose of 2 mg/kg, administered gastrically, CRL 41 194 opposes the hypothermia | Effect on righting behavior and stereotypies induced by apomorphine [17]: without modifying the righting behavior and the stereotypies | Stereotype movements [18]: At the strongest dose used (16 mg/kg), CRL 41 194 causes the appearance of stereotype movements; also recorded: The intensity of the effect obtained with 16 mg/kg is slightly lower than that obtained with 2 mg/kg of amphetamine | Observed symptoms ([19]; 0.25 mg/kg): weak excitation 24 hours after administration | Observed symptoms ([19]; 1 mg/kg): weak excitation 24 hours after administration | Observed symptoms ([19]; 4 mg/kg): weak excitation and an increase in the reactivity to touch about 24 hours after administration | Observed symptoms ([19]; 16 mg/kg, hydrochloride): weak excitation 24 hours after administration; also recorded: an increase in the reactivity to touch for 24 hours; also recorded: dyspnea for 3 hours; also recorded: mydriasis for 2 hours (at a maximum 1 hour after administration); also recorded: dilation of the caudal veins for 2 hours
